Earlier results on 1 compound are cited in patent US9333228B2, “Nutritional supplement for recovery, repair, and maintenance” (Top Doctors Labs, LLC, priority 2010, dated 2016).

This data set has as its system osteoporotic fractures. Particulars: human clinical studies; vitamin K2 as MK-4.

Take `CC(C)=CCC/C(C)=C/CC/C(C)=C/CC/C(C)=C/CC1=C(C)C(=O)c2ccccc2C1=O` [vitamin K2, menatetranone]: the “lower risk of osteoporotic fractures” value is listed as “up to 81%”.
